Patent US20240197713A1, “LFA-1 ANTAGONISTS FOR TREATING INFLAMMATORY BOWEL DIESEASE” (VivaVision Biotech, Inc, priority 2022, published 2024)

System: oxazolone-induced colitis mice
Test: Oxazolone-induced acute colitis in mice for ulcerative colitis
Format: in vivo, Balb/c mice
Settings: compound 1 5 mg/kg, tofacitinib 10 mg/kg; for bodyweight loss (bodyweight change, FIG. 1): PO BID 5 days (Days 4 to 8 after sensitization) in 0.5% CMC-Na; for DAI score (disease activity index, FIG. 2): PO BID 5 days, scored per Table 2; for colon density (FIG. 5) / colon length (FIG. 4) / colon weight (FIG. 3): colon collected Day 9, PO BID 5 days
Description: Compound 1 (i.e., lifitegrast) was evaluated in an oxazolone-induced colitis murine model, along with tofacitinib. Boirivant et al., J. Exp. Med. 1998, 188, 1929-39. Balb/c mice were randomly divided into 4 groups according to Table 1: 2 treatment groups (Treatment Groups), 1 vehicle group (Vehicle Group), and 1 sham group (Sham Group). The mice in Treatment and Vehicle Groups were sensitized with 200 μL of 2% oxazolone in acetone and olive oil (1:4), followed by injection of 100 μL of 1.5% oxazolone into the rectum of each mouse on Day 5 after sensitization. The mice in Sham Group were sensitized with 200 μL of a mixture of acetone and olive oil (1:4) without oxazolone, followed by injection of 100 μL of 50% ethanol/water into the rectum of each mouse on Day 5 after sensitization. Before the injection into the rectum, each mouse was anesthetized intraperitoneally with tribromoethanol (0.3 mL, 1.25%). From Days 4 to 8 after sensitization, the mice in Sham Group and Vehicle Group were each given 0.5% CMC-Na by gavage, and the mice in Treatment Groups were each given by gavage tofacitinib or compound 1 in 0.5% CMC-Na, respectively, according to the dosing schedule shown in Table 1.
The bodyweight of each mouse was measured daily. From Day 4 after sensitization, the fecal property and occult blood as determined with a fecal occult blood test (FOBT) of each mouse were measured daily to calculate a disease activity index (DAI) according to Table 2.
On Day 9 after sensitization, each mouse was euthanized and blood was collected from the heart. A serum was prepared and frozen for the determination of inflammatory factors.
The colon of each mouse was collected and photographed, and the colon length was measured and weighed after the removal of the content of the colon. A part of each colon collected was fixed using the Swiss roll technique in neutral paraformaldehyde for pathological scoring (Table 3) as described in Bialkowska et al., J. Vis. Exp. 2016, 113, e54161. The rest of the colon mucosa of each mouse was scraped and frozen for the determination of inflammatory factors.

Compound | bodyweight loss (bodyweight change, FIG. 1) | DAI score (disease activity index, FIG. 2) | colon density (FIG. 5) | colon length (FIG. 4) | colon weight (FIG. 3)
CS(=O)(=O)c1cccc(C[C@H](NC(=O)c2c(Cl)cc3c(c2Cl)CCN(C(=O)c2ccc4ccoc4c2)C3)C(=O)O)c1 [compound 1, (S)-2-(2-(benzofuran-6-carbonyl)-5,7-dichloro-1,2,3,4-tetrahydroisoquinoline-6-carboxamido)-3-(3-(methylsulfonyl)phenyl)propanoic acid] | slowed the bodyweight loss | improved the DAI score | able to reverse the disease effects | able to reverse the disease effects | able to reverse the disease effects
C[C@@H]1CCN(C(=O)CC#N)C[C@@H]1N(C)c1ncnc2[nH]ccc12 [tofacitinib] | slowed the bodyweight loss | improved the DAI score | able to reverse the disease effects | able to reverse the disease effects | able to reverse the disease effects
